Active and inactive are the calls of the source. No cut-off for these calls is given here.
Tests used:
Brassica oleracea [1] = experiment: Reduction in MDA level in Brassica oleracea (Broccoli) seedlings grown in hydroponic culture containing compound at 1 mg/L after 30 days after compound treatment; format: functional, organism-based
Brassica oleracea [2] = experiment: Effect on chlorophyll level assessed per dry weight in Brassica oleracea (Broccoli) seedlings grown in hydroponic culture containing compound at 1 mg/L after 40 days after compound treatment (reference value: 181 +/- 23 mg/kg); format: functional
Leaf [3] = experiment: Drug level in leaves of Brassica oleracea (Broccoli) seedlings grown in hydroponic culture containing compound at 1 mg/L in presence of 1 mg/L CdCl2 assessed as SeMet level measured after 40 days after compound treatment; format: ADME; conditions: 960 h
Brassica oleracea [4] = experiment: Protective effect against cadmium-induced toxicity in Brassica oleracea (Broccoli) seedlings grown in hydroponic culture containing compound at 1 mg/L in presence of 1 mg/L CdCl2 assessed as chlorophyll level assessed per dry weight after 40 days after compound treatment by spectrophotometry (reference value: 118 +/- 12 mg/kg dry weight); format: functional
Leaf [5] = experiment: Effect on cadmium level in leaves of Brassica oleracea (Broccoli) seedlings grown in hydroponic culture containing 1 mg/L measured after 40 days after compound treatment; format: ADME; conditions: 960 h
Root [6] = experiment: Drug level in roots of Brassica oleracea (Broccoli) seedlings grown in hydroponic culture containing compound at 1 mg/L assessed as SeMet level measured after 40 days after compound treatment; format: ADME; conditions: 960 h
Fruit [7] = experiment: Drug level in fruits of Brassica oleracea (Broccoli) seedlings grown in hydroponic culture containing compound at 1 mg/L in presence of 1 mg/L CdCl2 assessed as SeMetSeCys level measured after 40 days after compound treatment; format: ADME; conditions: 960 h
Root [8] = experiment: Drug level in roots of Brassica oleracea (Broccoli) seedlings grown in hydroponic culture containing 1 mg/L measured after 40 days after compound treatment; format: ADME; conditions: 960 h
Fruit [9] = experiment: Effect on cadmium level in fruits of Brassica oleracea (Broccoli) seedlings grown in hydroponic culture containing 1 mg/L measured after 40 days after compound treatment; format: ADME; conditions: 960 h
Fruit [10] = experiment: Drug level in fruits of Brassica oleracea (Broccoli) seedlings grown in hydroponic culture containing compound at 1 mg/L assessed as Se(IV) level measured after 40 days after compound treatment; format: ADME; conditions: 960 h
Root [11] = experiment: Effect on cadmium level in roots of Brassica oleracea (Broccoli) seedlings grown in hydroponic culture containing 1 mg/L measured after 40 days after compound treatment; format: ADME; conditions: 960 h
Root [12] = experiment: Drug level in roots of Brassica oleracea (Broccoli) seedlings grown in hydroponic culture containing compound at 1 mg/L assessed as SeMetSeCys level measured after 40 days after compound treatment; format: ADME; conditions: 960 h
Root [13] = experiment: Drug level in roots of Brassica oleracea (Broccoli) seedlings grown in hydroponic culture containing compound at 1 mg/L assessed as Se(IV) level measured after 40 days after compound treatment; format: ADME; conditions: 960 h
Leaf [14] = experiment: Drug level in leaves of Brassica oleracea (Broccoli) seedlings grown in hydroponic culture containing compound at 1 mg/L assessed as SeMet level measured after 40 days after compound treatment; format: ADME; conditions: 960 h
Brassica oleracea [15] = experiment: Effect on chlorophyll level assessed per dry weight in Brassica oleracea (Broccoli) seedlings grown in hydroponic culture containing compound at 1 mg/L after 10 days after compound treatment (reference value: 200 +/- 26 mg/kg); format: functional
Root [16] = experiment: Drug level in roots of Brassica oleracea (Broccoli) seedlings grown in hydroponic culture containing 1 mg/L in presence of 1 mg/L CdCl2 measured after 40 days after compound treatment; format: ADME; conditions: 960 h
Fruit [17] = experiment: Drug level in fruits of Brassica oleracea (Broccoli) seedlings grown in hydroponic culture containing compound at 1 mg/L assessed as SeMet level measured after 40 days after compound treatment; format: ADME; conditions: 960 h
Leaf [18] = experiment: Drug level in leaves of Brassica oleracea (Broccoli) seedlings grown in hydroponic culture containing compound at 1 mg/L assessed as Se(IV) level measured after 40 days after compound treatment; format: ADME; conditions: 960 h
Root [19] = experiment: Drug level in roots of Brassica oleracea (Broccoli) seedlings grown in hydroponic culture containing compound at 1 mg/L in presence of 1 mg/L CdCl2 assessed as SeMetSeCys level measured after 40 days after compound treatment; format: ADME; conditions: 960 h
Fruit [20] = experiment: Drug level in fruits of Brassica oleracea (Broccoli) seedlings grown in hydroponic culture containing 1 mg/L measured after 40 days after compound treatment; format: ADME; conditions: 960 h
Brassica oleracea [21] = experiment: Protective effect against cadmium-induced toxicity in Brassica oleracea (Broccoli) seedlings grown in hydroponic culture containing compound at 1 mg/L in presence of 1 mg/L CdCl2 assessed as attenuation of reduction in tocopherol level after 40 days after compound treatment by spectrophotometry; format: functional; set-up: scale not given: the % may be the effect or the level left
Brassica oleracea [22] = experiment: Protective effect against cadmium-induced toxicity in Brassica oleracea (Broccoli) seedlings grown in hydroponic culture containing compound at 1 mg/L in presence of 1 mg/L CdCl2 assessed as chlorophyll level assessed per dry weight after 10 days after compound treatment by spectrophotometry (reference value: 120 +/- 8 mg/kg dry weight); format: functional
Fruit [23] = experiment: Drug level in fruits of Brassica oleracea (Broccoli) seedlings grown in hydroponic culture containing compound at 1 mg/L assessed as SeMetSeCys level measured after 40 days after compound treatment; format: ADME; conditions: 960 h
Leaf [24] = experiment: Drug level in leaves of Brassica oleracea (Broccoli) seedlings grown in hydroponic culture containing 1 mg/L in presence of 1 mg/L CdCl2 measured after 40 days after compound treatment; format: ADME; conditions: 960 h
Fruit [25] = experiment: Drug level in fruits of Brassica oleracea (Broccoli) seedlings grown in hydroponic culture containing compound at 1 mg/L in presence of 1 mg/L CdCl2 assessed as SeMet level measured after 40 days after compound treatment; format: ADME; conditions: 960 h
Leaf [26] = experiment: Drug level in leaves of Brassica oleracea (Broccoli) seedlings grown in hydroponic culture containing compound at 1 mg/L in presence of 1 mg/L CdCl2 assessed as SeMetSeCys level measured after 40 days after compound treatment; format: ADME; conditions: 960 h
Leaf [27] = experiment: Drug level in leaves of Brassica oleracea (Broccoli) seedlings grown in hydroponic culture containing compound at 1 mg/L assessed as SeMetSeCys level measured after 40 days after compound treatment; format: ADME; conditions: 960 h
Leaf [28] = experiment: Effect on cadmium level in leaves of Brassica oleracea (Broccoli) seedlings grown in hydroponic culture containing 1 mg/L in presence of 1 mg/L CdCl2 measured after 40 days after compound treatment; format: ADME; conditions: 960 h
Leaf [29] = experiment: Drug level in leaves of Brassica oleracea (Broccoli) seedlings grown in hydroponic culture containing 1 mg/L measured after 40 days after compound treatment; format: ADME; conditions: 960 h
Leaf [30] = experiment: Drug level in leaves of Brassica oleracea (Broccoli) seedlings grown in hydroponic culture containing compound at 1 mg/L in presence of 1 mg/L CdCl2 assessed as Se(IV) level measured after 40 days after compound treatment; format: ADME; conditions: 960 h
Fruit [31] = experiment: Effect on cadmium level in fruits of Brassica oleracea (Broccoli) seedlings grown in hydroponic culture containing 1 mg/L in presence of 1 mg/L CdCl2 measured after 40 days after compound treatment; format: ADME; conditions: 960 h
Brassica oleracea [32] = experiment: Protective effect against cadmium-induced toxicity in Brassica oleracea (Broccoli) seedlings grown in hydroponic culture containing compound at 1 mg/L in presence of 1 mg/L CdCl2 assessed as reduction in MDA level after 30 days after compound treatment by spectrophotometry; format: functional, organism-based
Brassica oleracea [33] = experiment: Effect on tocopherol level in Brassica oleracea (Broccoli) seedlings grown in hydroponic culture containing compound at 1 mg/L after 40 days after compound treatment; format: functional, organism-based
Root [34] = experiment: Drug level in roots of Brassica oleracea (Broccoli) seedlings grown in hydroponic culture containing compound at 1 mg/L in presence of 1 mg/L CdCl2 assessed as Se(IV) level measured after 40 days after compound treatment; format: ADME; conditions: 960 h
Root [35] = experiment: Effect on cadmium level in roots of Brassica oleracea (Broccoli) seedlings grown in hydroponic culture containing 1 mg/L in presence of 1 mg/L CdCl2 measured after 40 days after compound treatment; format: ADME; conditions: 960 h
Fruit [36] = experiment: Drug level in fruits of Brassica oleracea (Broccoli) seedlings grown in hydroponic culture containing 1 mg/L in presence of 1 mg/L CdCl2 measured after 40 days after compound treatment; format: ADME; conditions: 960 h
Root [37] = experiment: Drug level in roots of Brassica oleracea (Broccoli) seedlings grown in hydroponic culture containing compound at 1 mg/L in presence of 1 mg/L CdCl2 assessed as SeMet level measured after 40 days after compound treatment; format: ADME; conditions: 960 h
Fruit [38] = experiment: Drug level in fruits of Brassica oleracea (Broccoli) seedlings grown in hydroponic culture containing compound at 1 mg/L in presence of 1 mg/L CdCl2 assessed as Se(IV) level measured after 40 days after compound treatment; format: ADME; conditions: 960 h

`O=[Se]([O-])[O-].[Na+].[Na+]` [SODIUM SELENITE] was tested, and the Activity (Brassica oleracea [1]) was “Active”, the Activity (Brassica oleracea [2]) was 148 mg/kg and the Drug uptake (Leaf [3]) was 0.62 mg/kg. For the same molecule, the Activity (Brassica oleracea [4]) was 175 mg/kg, the Activity (Leaf [5]) was 0.2 mg/kg and the Drug uptake (Root [6]) was 6.1 mg/kg. For the same molecule, the Drug uptake (Fruit [7]) was 6.5 mg/kg, the Drug uptake (Root [8]) was 20 mg/kg and the Activity (Fruit [9]) was 0.4 mg/kg. It also gave a Drug uptake (Fruit [10]) of 1.89 mg/kg, an Activity (Root [11]) of 0.36 mg/kg and a Drug uptake (Root [12]) of 3.6 mg/kg. The Drug uptake (Root [13]) was 1.4 mg/kg, the Drug uptake (Leaf [14]) was 0.59 mg/kg and the Activity (Brassica oleracea [15]) was 155 mg/kg. For the same molecule, the Drug uptake (Root [16]) was 21 mg/kg, the Drug uptake (Fruit [17]) was 7.2 mg/kg and the Drug uptake (Leaf [18]) was 0.082 mg/kg. It also gave a Drug uptake (Root [19]) of 3.4 mg/kg, a Drug uptake (Fruit [20]) of 27 mg/kg and an Activity (Brassica oleracea [21]) of 40%. It also gave an Activity (Brassica oleracea [22]) of 177 mg/kg, a Drug uptake (Fruit [23]) of 12.3 mg/kg and a Drug uptake (Leaf [24]) of 1.54 mg/kg. It also gave a Drug uptake (Fruit [25]) of 0.24 mg/kg, a Drug uptake (Leaf [26]) of 0.65 mg/kg and a Drug uptake (Leaf [27]) of 0.71 mg/kg. The Activity (Leaf [28]) was 7.5 mg/kg, the Drug uptake (Leaf [29]) was 2 mg/kg and the Drug uptake (Leaf [30]) was 0.09 mg/kg. The Activity (Fruit [31]) was 48 mg/kg, the Activity (Brassica oleracea [32]) was “Active” and the Activity (Brassica oleracea [33]) was “Active”. The Drug uptake (Root [34]) was 1.6 mg/kg, the Activity (Root [35]) was 53 mg/kg and the Drug uptake (Fruit [36]) was 10 mg/kg. It also gave a Drug uptake (Root [37]) of 5.4 mg/kg and a Drug uptake (Fruit [38]) of 0.039 mg/kg.

From ChEMBL document CHEMBL3045670, “Protective effect of selenium in Broccoli (Brassica oleracea) plants subjected to cadmium exposure” (J Agric Food Chem, 2008)
